This series is described as follows: Urinary excretion of phenolic metabolites after intake of the GCPE nutraceutical. To be noted: for Cumulative urinary excretion, Total 0–24 h: urine, mean ± SEM, n = 9.

This is an account of results in publication PMC9230201, “Sustained Consumption of a Decaffeinated Green Coffee Nutraceutical Has Limited Effects on Phenolic Metabolism and Bioavailability in Overweight/Obese Subjects” (Nutrients, 2022).

Take `O=C(O)CCc1ccc(O)c(OS(=O)(=O)O)c1` [DHCA-3′-sulfate, 3-(4′-Hydroxyphenyl)propanoic acid-3′-sulfate]: the “Cumulative urinary excretion, Total 0–24 h” value (from here on “Cumulative urinary excretion”) runs as follows: (week 0) 9 ± 2 µmol; (week 8) 9 ± 3 µmol. Besides, the Amount excreted in urine, 0- 3 h is 0.32 ± 0.07 µmol (week 0, interval 0–3 h) and 0.7 ± 0.2 µmol (week 8, interval 0–3 h). Further, the Amount excreted in urine, 3-6 h turned out to be 0.26 ± 0.07 µmol (week 0, interval 3–6 h) and 0.6 ± 0.2 µmol (week 8, interval 3–6 h). Further, the Amount excreted in urine, 6-9 h runs as follows: (week 0, interval 6–9 h) 2.5 ± 0.9 µmol; (week 8, interval 6–9 h) 2.5 ± 0.6 µmol. Moreover, the Amount excreted in urine, 9-11 h is, setting by setting: (week 0, interval 9–11 h) 2 ± 0.7 µmol; (week 8, interval 9–11 h) 3 ± 1 µmol. For the same compound, the Amount excreted in urine, 11-24 h was 4 ± 1 µmol (week 0, interval 11–24 h) and 2 ± 1 µmol (week 8, interval 11–24 h).

`O=C(O)CCc1ccc(O[C@@H]2O[C@H](C(=O)O)[C@@H](O)[C@H](O)[C@H]2O)cc1` [DHCoA-4′-glucuronide, 3-(Phenyl)propanoic acid-4′-glucuronide]: the “Cumulative urinary excretion” value reads like this: (week 0) 2.1 ± 0.3 µmol; (week 8) 1.9 ± 0.3 µmol. The Amount excreted in urine, 0- 3 h (week 0, interval 0–3 h) came to 0.17 ± 0.06 µmol and the Amount excreted in urine, 0- 3 h (week 8, interval 0–3 h) was determined as 0.23 ± 0.09 µmol. Further, the Amount excreted in urine, 3-6 h runs as follows: (week 0, interval 3–6 h) 0.1 ± 0.03 µmol; (week 8, interval 3–6 h) 0.16 ± 0.05 µmol. For the same compound, the Amount excreted in urine, 6-9 h came to 0.26 ± 0.09 µmol (week 0, interval 6–9 h) and 0.56 ± 0.2 µmol (week 8, interval 6–9 h). In addition, the Amount excreted in urine, 9-11 h came out at 0.28 ± 0.07 µmol (week 0, interval 9–11 h) and 0.4 ± 0.1 µmol (week 8, interval 9–11 h). Moreover, the Amount excreted in urine, 11-24 h by setting is: (week 0, interval 11–24 h) 1.3 ± 0.2 µmol; (week 8, interval 11–24 h) 1 ± 0.1 µmol.

As for `O=C(O)CCc1ccc(OS(=O)(=O)O)cc1` [DHCoA-4′-sulfate, 3-(Phenyl)propanoic acid-4′-sulfate], the “Cumulative urinary excretion” value runs as follows: (week 0) 21 ± 6 µmol; (week 8) 21 ± 4 µmol. Further, the Amount excreted in urine, 0- 3 h reads like this: (week 0, interval 0–3 h) 0.9 ± 0.4 µmol; (week 8, interval 0–3 h) 2 ± 0.8 µmol. The Amount excreted in urine, 3-6 h (week 0, interval 3–6 h) was 0.7 ± 0.1 µmol and the Amount excreted in urine, 3-6 h (week 8, interval 3–6 h) worked out at 1.5 ± 0.5 µmol. Moreover, the Amount excreted in urine, 6-9 h (week 0, interval 6–9 h) came out at 3 ± 1 µmol and the Amount excreted in urine, 6-9 h (week 8, interval 6–9 h) came to 5 ± 2 µmol. Also, the Amount excreted in urine, 9-11 h (week 0, interval 9–11 h) was found to be 3 ± 1 µmol and the Amount excreted in urine, 9-11 h (week 8, interval 9–11 h) turned out to be 5 ± 2 µmol. Further, the Amount excreted in urine, 11-24 h runs as follows: (week 0, interval 11–24 h) 12 ± 4 µmol; (week 8, interval 11–24 h) 7 ± 3 µmol.

Consider `COc1ccc(/C=C/C(=O)NCC(=O)O)cc1O` [IsoFeruloylglicine], for which the “Cumulative urinary excretion” value runs as follows: (week 0) 0.44 ± 0.04 µmol; (week 8) 0.6 ± 0.1 µmol. Also, the Amount excreted in urine, 0- 3 h runs as follows: (week 0, interval 0–3 h) 0.04 ± 0.01 µmol; (week 8, interval 0–3 h) 0.13 ± 0.05 µmol. Besides, the Amount excreted in urine, 3-6 h runs as follows: (week 0, interval 3–6 h) 0.035 ± 0.009 µmol; (week 8, interval 3–6 h) 0.1 ± 0.02 µmol. The Amount excreted in urine, 6-9 h is, setting by setting: (week 0, interval 6–9 h) 0.08 ± 0.02 µmol; (week 8, interval 6–9 h) 0.12 ± 0.04 µmol. The Amount excreted in urine, 9-11 h was 0.11 ± 0.01 µmol (week 0, interval 9–11 h) and 0.06 ± 0.02 µmol (week 8, interval 9–11 h). Besides, the Amount excreted in urine, 11-24 h by setting is: (week 0, interval 11–24 h) 0.16 ± 0.03 µmol; (week 8, interval 11–24 h) 0.17 ± 0.05 µmol.

Regarding `COc1ccc(C=CC(=O)O)cc1O[C@@H]1O[C@H](C(=O)O)[C@@H](O)[C@H](O)[C@H]1O` [iFA-3′-glucuronide, 4′-Methoxycinnamic acid-3′-glucuronide], the “Cumulative urinary excretion” value is 4.4 ± 0.5 µmol (week 0) and 6 ± 1 µmol (week 8). The Amount excreted in urine, 0- 3 h (week 0, interval 0–3 h) was determined as 0.9 ± 0.2 µmol and the Amount excreted in urine, 0- 3 h (week 8, interval 0–3 h) stood at 1.4 ± 0.3 µmol. Moreover, the Amount excreted in urine, 3-6 h by setting is: (week 0, interval 3–6 h) 0.8 ± 0.2 µmol; (week 8, interval 3–6 h) 0.9 ± 0.2 µmol. Further, the Amount excreted in urine, 6-9 h runs as follows: (week 0, interval 6–9 h) 1.1 ± 0.3 µmol; (week 8, interval 6–9 h) 1.7 ± 0.3 µmol. For the same compound, the Amount excreted in urine, 9-11 h runs as follows: (week 0, interval 9–11 h) 0.49 ± 0.09 µmol; (week 8, interval 9–11 h) 1 ± 0.4 µmol. In addition, the Amount excreted in urine, 11-24 h is, setting by setting: (week 0, interval 11–24 h) 1.1 ± 0.2 µmol; (week 8, interval 11–24 h) 1.1 ± 0.3 µmol.
